Data reported in patent US20240025886A1, “INHIBITORS OF IGF2BP1-RNA BINDING” (YISSUM RESEARCH DEVELOPMENT COMPANY OF THE HEBREW …, priority 2020, published 2024).

What was measured:
[1] = tested on: LKR-M cells transfected with full length human Igf2bp1-GFP; test: Wound healing assay, LKR-M cells expressing human Igf2bp1-GFP; assay type: cell-based, mouse; parameters: dose or concentration left out as unconfirmed; conditions: 7773 vs DMSO
Procedure: (§1) Cells were seeded in 96 IncuCyte® ImageLock plates (20×10^3 cells per well) for 24 hours, to a near confluency of 95%, before the addition of increasing concentrations of compound. After a further 24 hours, wells were scratched using the IncuCyte® 96-well WoundMaker Tool, and the cells cultured for an additional 48 hours using the IncuCyte® S3 Live-Cell Analysis System (Essen BioScience). The plate was imaged at increments of 120 minutes for a period of 48 hours, and then analyzed for relative wound healing.

[2] = tested on: LKR-M cells transfected with GFP alone; test: Wound healing assay, LKR-M cells expressing GFP alone; assay type: cell-based, mouse; conditions: 20 mM 7773 vs DMSO
Procedure: as §1

[3] = tested on: Igf2bp1 split-luciferase reporter in RKO cells; test: Split-luciferase assay of Igf2bp1 dimerization in RKO cells; assay type: cell-based; parameters: dose or concentration left out as unconfirmed
Procedure: Vectors expressing different fragments of split luciferase reporters with flexible linker were procured from Addgene (catalog #58786, 58787, 58788 and 58789). The vectors were digested with EcoRI and XhoI. EcoRI and XhoI restriction enzyme sites were added to 5′ and 3′ ends of the coding region of IGF2BP1 respectively using PCR. The inventors constructed four split luciferase reporter vectors by cloning IGF2BP1 in different orientation with the luciferase fragments (FIG. 8B). Primers used for the amplification of IGF2BP1 were: […]
The RKO cells were seeded in DMEM with 10% calf serum 24 hrs prior to the transfection. Transfection was done using Lipofectamine 2000 with reporter plasmids and Renilla-luciferase expressing vector (as internal control). After 24 hrs, cells were lysed using passive lysis buffer (Promega catalog #E1941). The lysates were cleared by centrifugation and its […] volume was mixed with […] of luciferase substrate solution for luminescence recording which was followed by addition of […] of Stop-glo solution (Promega catalog #E1910) with an additional luminescence reading. Both readings were detected by using GloMax 20/20 Luminometer (Promega), and the final value for each sample was the ratio of their two respective readings. […]

[4] = tested on: control luciferase in RKO cells; test: Control (wild type) luciferase in RKO cells; assay type: cell-based; conditions: 50 mM 7773
Procedure: The RKO cells were seeded in DMEM with 10% calf serum 24 hrs prior to the transfection. Transfection was done using Lipofectamine 2000 with reporter plasmids and Renilla-luciferase expressing vector (as internal control). After 24 hrs, cells were lysed using passive lysis buffer (Promega catalog #E1941). The lysates were cleared by centrifugation and its […] volume was mixed with […] of luciferase substrate solution for luminescence recording which was followed by addition of […] of Stop-glo solution (Promega catalog #E1910) with an additional luminescence reading. Both readings were detected by using GloMax 20/20 Luminometer (Promega), and the final value for each sample was the ratio of their two respective readings. To test the effects of 7773, transfected cells with reporter plasmids were washed with PBS after 24 hrs of transfection and incubated with medium containing 7773.

ES2 cells = test: Real-time PCR of steady state RNA levels in ES2 cells; assay type: cell-based, human; parameters: dose or concentration left out as unconfirmed
Procedure: (§2) Primers were calibrated for several Igf2bp1 RNA targets (Table 3): […]
(§3) Cells were grown for 12 hours in 12 well plates prior to incubation with the compound at different concentrations for an additional 12 or 24 hours. Total RNA was then extracted using EZ-RNA total RNA isolation kit (Biological Industries) and cDNA prepared from the RNA using the First Strand cDNA Synthesis kit (Quanta bio). Real time PCR was performed with Fast SYBR Green Master Mix (Thermo Fisher Scientific), and cDNA expression analyzed with the Bio-Rad CFX Manager 3.1.

H1299 cells [5] = test: Real-time PCR of steady state RNA levels in H1299 cells; assay type: cell-based, human
Procedure: as §2, §3

H1299 cells [6] = test: Growth in soft agar, H1299 cells; assay type: cell-based, human; parameters: dose or concentration left out as unconfirmed; conditions: H1299, 7773
Procedure: Cells were grown for 12 hours in 6 well plates prior to incubation with the compound or DMSO for an additional 48 hours, 2000 cells were suspended in 0.3% agar-complete medium and then seeded in triplicates onto a 0.6% agar-complete medium base in a 6 well plate. After one week, the colonies were fed with 0.3% agar-complete medium, and after 2 additional weeks, imaged and quantified.

O=C(c1ccc(Cn2cnnn2)cc1)N1CCCC(Nc2ccc3c(c2)OCO3)C1 (centres unmarked) [Compound 7773]
Inhibition of Igf2bp1-GFP enhanced wound healing [1]: significantly inhibited
Effect on migration of cells expressing GFP alone [2]: unaffected
Split-luciferase luminescence [3]: significantly reduced luminescence
Activity of wild type luciferase [4]: did not affect
Steady state levels of CD44, Kras, cMyc and SRF RNA (ES2 cells; ES2, 7773, 12 hours): reduced
Steady state level of CD44 RNA (ES2 cells; ES2, 7773, 12 hours, appeared to recover after 24 hours): strongly reduced
Steady state levels of control RNAs (not targets of Igf2bp1) (ES2 cells; ES2, 7773, 24 hours): not significantly affected
Steady state level of Kras mRNA (H1299 cells [5]; H1299, 20 mM 7773, 12 hours): already reduced
Steady state levels of CD44, Kras, cMyc and SRF RNA (H1299 cells [5]; H1299, 20 mM 7773, 24 hours): significantly reduced
Steady state levels of control RNAs (not targets of Igf2bp1) (H1299 cells [5]; H1299, 20 mM 7773, 24 hours): not significantly affected
Ability to form colonies in soft agar (H1299 cells [6]): dramatically inhibited
